From patent US20230158151A1 (NURIX THERAPEUTICS, INC., priority 2021, published 2023)
Read-outs that look alike come from different tables or passages of the source.

Legend:
[1] = Mouse PK Analysis (plasma LC/MS/MS, noncompartmental PK parameters); assay type: in vivo; design: AUC(0-t): concentration or dose not given beside the values; conditions: mouse; mice, oral administration, plasma
Method: Compounds 30 and 29 were administered to mice orally. After 6 hours or 24 hours, splenocytes cells were harvested. ITK was evaluated by Western blotting. Plasma concentrations were determined by LC/MS/MS. Plasma samples were protein precipitated by addition of 100 μl of acetonitrile containing 50 ng/ml of internal standard. The resulting mixture was vortexed and centrifuged at 4000 RPM for 5 minutes. An aliquot of the resultant supernatant (75 μl) was added to 75 μl of 0.1% formic acid in water to constitute the final sample for injection. Samples were injected on a Shimadzu Exion LC Binary Gradient AD Pump HLPC system connected to a Sciex QTRAP 6500+ mass spectrometer. Five μl of sample was injected onto a Waters Acquity UPLC BEH C18 column 130A (2.1×30 mm, […]) at 40° C. utilizing a flow rate of 700 μl/minute. Mobile Phase A was 0.1% formic acid in water and mobile phase B was 0.1% formic acid in acetonitrile. A linear gradient of 15-95% B over 1.0 minute was used. The mass spectrometer was operated in positive ion electrospray mode with multiple reaction monitoring for maximum sensitivity. Sciex Analyst software (version 1.6.3) was used for LC/MS/MS instrument control and acquisition. Compound concentration was determined against a standard curve of internal standard versus compound peak area ratio. Noncompartmental PK parameters were determined using Phoenix 32 software (version 8.2.0.4383) from Certara. Plasma concentrations from the LC/MS/MS analyses, dose, route of administration, and desired units were utilized for PK parameter calculations. […] FIG. 3C provides the concentration over time of compound 30 following in vivo oral administration in the 6 hour and 24 hour assays.
Cmax, Tmax and AUClast were all calculated using a WinNonLin Phoenix 64 v 8.2.0.4383. Using non-compartmental analysis, Tmax, Cmax and AUClast were determined as follows:
Tmax—Time of maximum observed concentration. Cmax—Maximum observed concentration, occurring at time Tmax, as defined above. AUClast—Area under the curve from the time of dosing to the time of the last measurable (positive) concentration (Tlast).

ITK = molecular target: T1, ITK (Homo sapiens, UniProt Q08881); assay: ITK Degradation HiBiT Assay; assay type: cell-based
T1 construct: Compounds provided herein were assayed in vitro with ITK HiBit cell lines; endogenous in cells; host or cells: Molt4 (ATCC CRL-1552 [sic]), monoclonal clone 1C10
T1 sequence (Q08881 1-620): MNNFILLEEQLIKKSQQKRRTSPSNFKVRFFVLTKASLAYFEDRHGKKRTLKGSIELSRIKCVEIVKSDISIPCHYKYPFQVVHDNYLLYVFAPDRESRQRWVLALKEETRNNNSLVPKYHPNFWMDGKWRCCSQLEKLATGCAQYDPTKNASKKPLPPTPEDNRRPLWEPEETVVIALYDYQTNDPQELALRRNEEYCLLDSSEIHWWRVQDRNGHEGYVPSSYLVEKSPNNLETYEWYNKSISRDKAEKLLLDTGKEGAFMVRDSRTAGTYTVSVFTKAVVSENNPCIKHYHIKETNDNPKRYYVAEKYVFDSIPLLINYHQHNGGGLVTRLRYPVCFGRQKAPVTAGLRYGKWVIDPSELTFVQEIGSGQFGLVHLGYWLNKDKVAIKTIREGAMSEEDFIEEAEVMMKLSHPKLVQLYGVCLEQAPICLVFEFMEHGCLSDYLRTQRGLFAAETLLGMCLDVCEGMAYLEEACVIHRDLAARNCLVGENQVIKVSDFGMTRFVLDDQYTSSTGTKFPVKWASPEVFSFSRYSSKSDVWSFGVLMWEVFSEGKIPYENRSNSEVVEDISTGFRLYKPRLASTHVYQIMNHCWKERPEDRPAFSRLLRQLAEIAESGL
Method: Compounds provided herein were assayed in vitro with ITK HiBit cell lines. Compound dilution series (11-point, 5 fold dilutions in DMSO, columns 2-12 with replicate in rows A/B, C/D, E/F, G, H at 2000× the final required concentrations were prepared in 96 well plate (Falcon, cat. no. 353077). Column 1, rows A-H were control DMSO. The 2000× solutions ranged from 2 mM to 1.024 nM (final assay concentration range 1 μM to […]). The 2000× solutions were added to cells in […], for a final DMSO concentration of 0.5% and final assay compound concentration of 1×. For the cells, C-terminal HiBiT-tagged Molt4 cells (ATCC CRL-1552, monoclonal cell line clone 1C10) were plated at 1×10^6 cells/mL, 100 μL/well ([…]) in complete RPMI (10% FBS, 1% L-glutamine). The cells were incubated with compound 32 and compound 30 for 4 hrs at 32° C./6% CO2.
Following incubation, 100 μL of complete Nano-Glo HiBiT Lytic Detection Reagent (Nano-Glo HiBiT Lytic Buffer with 1:50 Nano-Glo HiBiT Lytic Substrate and 1:100 LgBiT Protein; Promega cat. no. N3O40) was added. Cells were further incubated for 10 min at room temperature (RT). Luminescence units (LU) were read on an EnVision plate reader (Perkin Elmer, 0.1 sec per well). Percent ITK remaining per sample was calculated as follows: […]
Using Graphpad Prism, % ITK remaining values were plotted as a function of compound concentration. To determine DC50 and Dmax values, resulting curves were fit to the Prism curve-fitting equation “log(inhibitor) vs response−Variable slope (four parameters)” (reported best fit value IC50 used as DC50). ITK was measured with antibody-based MSD (Meso-Scale Discovery) assays shown below.

[2] = MOLT-4, C-terminal HiBiT-tagged Molt4 cells, 4 hrs incubation, read-out: HiBiT DMax (%)
[3] = C-terminal HiBiT-tagged Molt4 cells, 4 hrs incubation

AUC(0-t) [1] [µM·h] | Cmax [1] [nM] | Tmax [1] [h] | Dmax (ITK; [2]) [%] | DC50 (ITK; [3]) [pM] | Dmax (ITK; ITK degradation in HiBiT cell line, FIG. 1, read-out: Dmax values (FIG. 1)) [%] | Compound
7.07 | 2430 | 1 | 82 | – | – | CN(C(=O)CCC1CCN(c2ccc(C3CCC(=O)NC3=O)cn2)CC1)c1ccc2cc(-c3n[nH]c4c3C[C@@H]3C(F)(F)[C@]3(C)C4)[nH]c2c1 (stereo partly drawn) [Compound 4, N-(2-((4aS,5aR)-5,5-difluoro-5a-methyl-1,4,4a,5,5a,6-hexahydrocyclopropa[f]indazol-3-yl)-1H-indol-6-yl)-3-(1-(5-(2,6-dioxopiperidin-3-yl)pyridin-2-yl)piperidin-4-yl)-N-methylpropanamide]
– | – | – | 85 | – | – | CN(C(=O)CC1CCN(CC2CCN(c3ccc(C4CCC(=O)NC4=O)cn3)CC2)CC1)c1ccc2cc(-c3n[nH]c4c3C[C@@H]3C(F)(F)[C@]3(C)C4)[nH]c2c1 (stereo partly drawn) [Compound 6, N-(2-((4aS,5aR)-5,5-difluoro-5a-methyl-1,4,4a,5,5a,6-hexahydrocyclopropa[f]indazol-3-yl)-1H-indol-6-yl)-2-(1-((1-(5-(2,6-dioxopiperidin-3-yl)pyridin-2-yl)piperidin-4-yl)methyl)piperidin-4-yl)-N-methylacetamide]
– | – | – | 90 | – | – | C[C@@]12Cc3[nH]nc(C(=O)Nc4cnn(CC5CN(C(=O)C6CCN(c7ccc(C8CCC(=O)NC8=O)cn7)CC6)C5)c4)c3C[C@@H]1C2(F)F (stereo partly drawn) [Compound 22, (4aS,5aR)—N-(1-((1-(1-(5-(2,6-dioxopiperidin-3-yl)pyridin-2-yl)piperidine-4-carbonyl)azetidin-3-yl)methyl)-1H-pyrazol-4-yl)-5,5-difluoro-5a-methyl-1,4,4a,5,5a,6-hexahydrocyclopropa[f]indazole-3-carboxamide]
– | – | – | 85 | – | – | C[C@@]12Cc3[nH]nc(C(=O)Nc4cnn(CC5CN(C(=O)C6CN(c7ccc(C8CCC(=O)NC8=O)cn7)C6)C5)c4)c3C[C@@H]1C2(F)F (stereo partly drawn) [Compound 23, (4aS,5aR)—N-(1-((1-(1-(5-(2,6-dioxopiperidin-3-yl)pyridin-2-yl)azetidine-3-carbonyl)azetidin-3-yl)methyl)-1H-pyrazol-4-yl)-5,5-difluoro-5a-methyl-1,4,4a,5,5a,6-hexahydrocyclopropa[f]indazole-3-carboxamide]
1.43 | 610 | 6 | 92 | 600 | – | CC1(C)CCc2c(-c3cc4ccc(N5CCC6(CCN(CC7CCN(c8ccc(C9CCC(=O)NC9=O)cn8)CC7)CC6)C5=O)cc4[nH]3)n[nH]c2C1 (centres unmarked) [Compound 24, 3-(6-(4-((2-(2-(6,6-dimethyl-4,5,6,7-tetrahydro-1H-indazol-3-yl)-1H-indol-6-yl)-1-oxo-2,8-diazaspiro[4.5]decan-8-yl)methyl)piperidin-1-yl)pyridin-3-yl)piperidine-2,6-dione]
36.5 | 7110 | 6 | 87 | – | – | CC1(C)CCc2c(-c3cc4ccc(C(=O)N5CCN(CC6CCN(c7ccc(C8CCC(=O)NC8=O)cn7)CC6)CC5)cc4[nH]3)n[nH]c2C1 (centres unmarked) [Compound 26, 3-(6-(4-((4-(2-(6,6-dimethyl-4,5,6,7-tetrahydro-1H-indazol-3-yl)-1H-indole-6-carbonyl)piperazin-1-yl)methyl)piperidin-1-yl)pyridin-3-yl)piperidine-2,6-dione]
1.56 | 379 | 6 | 91 | – | – | C[C@@]12Cc3[nH]nc(-c4cc5ccc(N6CCC7(CCN(CC8CCN(c9ccc(C%10CCC(=O)NC%10=O)cn9)CC8)CC7)C6=O)cc5[nH]4)c3C[C@@H]1C2(F)F (stereo partly drawn) [Compound 28, 3-(6-(4-((2-(2-((4aS,5aR)-5,5-difluoro-5a-methyl-1,4,4a,5,5a,6-hexahydrocyclopropa[f]indazol-3-yl)-1H-indol-6-yl)-1-oxo-2,8-diazaspiro[4.5]decan-8-yl)methyl)piperidin-1-yl)pyridin-3-yl)piperidine-2,6-dione]
1.98 | 694 | 3.3 | 76 | – | – | C[C@@H](C(=O)N(C)c1ccc2cc(-c3n[nH]c4c3C[C@@H]3C(F)(F)[C@]3(C)C4)[nH]c2c1)N1CCN(CC2CCN(c3ccc(N4CCC(=O)NC4=O)cn3)CC2)CC1 [Compound 29, (S)—N-(2-((4aS,5aR)-5,5-difluoro-5a-methyl-1,4,4a,5,5a,6-hexahydrocyclopropa[f]indazol-3-yl)-1H-indol-6-yl)-2-(4-((1-(5-(2,4-dioxotetrahydropyrimidin-1(2H)-yl)pyridin-2-yl)piperidin-4-yl)methyl)piperazin-1-yl)-N-methylpropanamide]
16.5 | 3080 | 2 | 84 | – | – | C[C@@H](C(=O)N(C)c1ccc2cc(-c3n[nH]c4c3CCC(C)(C)C4)[nH]c2c1)N1CCN(CC2CCN(c3ccc(N4CCC(=O)NC4=O)cn3)CC2)CC1 [Compound 31, (S)—N-(2-(6,6-dimethyl-4,5,6,7-tetrahydro-1H-indazol-3-yl)-1H-indol-6-yl)-2-(4-((1-(5-(2,4-dioxotetrahydropyrimidin-1(2H)-yl)pyridin-2-yl)piperidin-4-yl)methyl)piperazin-1-yl)-N-methylpropanamide]
22.7 | 1620 | 6 | 89 | – | 90 to 100 | C[C@@H](C(=O)N(C)c1ccc2cc(-c3n[nH]c4c3CCC(C)(C)C4)[nH]c2c1)N1CCN(CC2CCN(c3ccc(C4CCC(=O)NC4=O)cn3)CC2)CC1 (stereo partly drawn) [Compound 32, (2S)—N-(2-(6,6-dimethyl-4,5,6,7-tetrahydro-1H-indazol-3-yl)-1H-indol-6-yl)-2-(4-((1-(5-(2,6-dioxopiperidin-3-yl)pyridin-2-yl)piperidin-4-yl)methyl)piperazin-1-yl)-N-methylpropanamide]
12 | 2000 | 2 | 86 | < 10 | – | CC1(C)CCc2c(-c3cc4ccc(C(=O)N5CCC(CN6CCN(c7ccc(C8CCC(=O)NC8=O)nc7)CC6)CC5)cc4[nH]3)n[nH]c2C1 (centres unmarked) [Compound 35, 3-(5-(4-((1-(2-(6,6-dimethyl-4,5,6,7-tetrahydro-1H-indazol-3-yl)-1H-indole-6-carbonyl)piperidin-4-yl)methyl)piperazin-1-yl)pyridin-2-yl)piperidine-2,6-dione]
